The text below walks through data of patent US12595269B2, “Morpholine-like monoamine releasers” (Solvonis Therapeutics Ireland Holdings Limited, priority 2022, dated 2026).

“Also recorded” adds a separate entry of the source.

Data set [1] concerns the target T1, human P-glycoprotein (MDR1) (Homo sapiens, UniProt P08183).
T1 construct: expressed in transfected cells; host or cells: MDCKII (canine kidney)
The experiment in a line: P-gp substrate assessment, efflux ratio in MDCKII-MDR1 cells. Format: in vitro ADME. To be noted: dog, MDCK-MDR1, pH 7.4; efflux ratio; P-gp substrate if ratio >2 and reduced by inhibitor; read-out: B/A ratio in MDCKII-MDR1 cells. The protocol: (§1) Methods and Procedure: This study was conducted in compliance with previously described procedures to assure data integrity and adherence to GLP regulations. The experiments described herein were designed to evaluate the apparent permeability (Papp) of test compounds at pH 7.4. Additionally, the MDCKII-MDR1 cell line (Madin-Darby Canine Kidney clone II cell line heterologously expressing the human P-glycoprotein transporter) and mock cell line MDCKII were used to determine whether a compound acted as a P-gp substrate, in the absence and in the presence of the potent P-gp inhibitor. Test control items (digoxin, metoprolol, and atenolol) and control P-gp inhibitor (GF120918) stock solution were prepared in DMSO. Bidirectional assays (Apical to Basolateral [AB] and Basolateral to Apical [BA]) were run, in both the absence and presence of P-gp inhibitor GF120918 in MDCKII-MDR1 and mock cell line MDCKII, using as transport buffer HBSSH at a pH of 7.4 (n=3).
(§2) Compounds were tested at a single concentration (i.e. at 3 or 10 μM) at one time point (i.e. 60 min). Alternative concentrations or time-points may also be investigated. As reference compounds, digoxin (P-gp substrate), atenolol (low permeable compound) and metoprolol (high permeable compound) were included at a single concentration (e.g., 10 or 25 μM) and at single time point (e.g., 60 min). Digoxin transport was evaluated in two directions (apical-to-basolateral [AB] and basolateral-to-apical [BA]) in the absence and presence of GF120918 or in mock cells, MDCKII (n=3). Atenolol and metoprolol were only tested in the AB direction in absence of GF120918 or in mock cells, MDCKII (n=3). The integrity of the cell monolayer was evaluated after the permeability experiment using the paracellular permeability marker Lucifer yellow (LY) in the apical to basolateral direction in each well.
(§3) MDCKII or MDCKII-MDRI cells cultivated using DMEM (high glucose, GlutaMAX™ supplemented with pyruvate, 10% FBS HI and Pen/Strep) and seeded onto microporous PET (Polyethylene Terephthalate) membranes in HTS 96-Multiwell Insert plates at density of ˜175,000-245,000 cells/cm^2 (25000-35000 cells/well; 50 μL/well) in DMEM medium and incubated for 3-4 days at 37° C.-5% CO2. Medium was changed a day before the experiment.
(§4) Stock solutions of test items were prepared in DMSO at a concentration of 5 or 10 mM and stored at −20° C. until use. The potent P-gp inhibitor, GF120918 (stock solution 10 mM) and the reference controls digoxin, atenolol, metoprolol (stock solutions 3 or 10 mM) were prepared in DMSO and stored at −20° C. until use.
(§5) Donor working solutions of test items and reference controls will be prepared at a concentration of 10 or 25 μM, diluting the stock solutions in HBSSH. Receiver working solutions contained transport buffer only. All working solutions were prepared such that the final concentration of DMSO was <1% (v/v). A donor working solution containing LY was also prepared in transport buffer at 100 µM.
(§6) MDCKII and MDCKII-MDR1 cells were preincubated (37° C., 15 to 30 minutes) in receiver working solutions containing transport buffer on apical (A) and basolateral (B) sides. Following pre-incubation, test items and control items (digoxin) transport were measured in two directions (apical to basolateral [AB]) and basolateral to apical [BA]), and these directions were performed in triplicate sets of wells, in both the absence and presence of […] GF120918 or mock MDCKII cells. For [AB] directional transport, 75 μL of donor working solution was added to the A (apical) compartment and 235 μL of receiver working solution was added to the B (basolateral) compartment. For [BA] directional transport, 235 μL donor working solution with test items or reference controls was added to the B compartment and 75 μL receiver working solution was added to the A compartment. Transport of permeability reference controls, atenolol and metoprolol, were measured in one direction (apical to basolateral [AB]) (n=3). […]

For data set [2], the target named is T2, human P-glycoprotein transporter (Homo sapiens, UniProt P08183).
T2 construct: expressed in transfected cells; host or cells: MDCKII (canine kidney)
T2 sequence (P08183 whole entry): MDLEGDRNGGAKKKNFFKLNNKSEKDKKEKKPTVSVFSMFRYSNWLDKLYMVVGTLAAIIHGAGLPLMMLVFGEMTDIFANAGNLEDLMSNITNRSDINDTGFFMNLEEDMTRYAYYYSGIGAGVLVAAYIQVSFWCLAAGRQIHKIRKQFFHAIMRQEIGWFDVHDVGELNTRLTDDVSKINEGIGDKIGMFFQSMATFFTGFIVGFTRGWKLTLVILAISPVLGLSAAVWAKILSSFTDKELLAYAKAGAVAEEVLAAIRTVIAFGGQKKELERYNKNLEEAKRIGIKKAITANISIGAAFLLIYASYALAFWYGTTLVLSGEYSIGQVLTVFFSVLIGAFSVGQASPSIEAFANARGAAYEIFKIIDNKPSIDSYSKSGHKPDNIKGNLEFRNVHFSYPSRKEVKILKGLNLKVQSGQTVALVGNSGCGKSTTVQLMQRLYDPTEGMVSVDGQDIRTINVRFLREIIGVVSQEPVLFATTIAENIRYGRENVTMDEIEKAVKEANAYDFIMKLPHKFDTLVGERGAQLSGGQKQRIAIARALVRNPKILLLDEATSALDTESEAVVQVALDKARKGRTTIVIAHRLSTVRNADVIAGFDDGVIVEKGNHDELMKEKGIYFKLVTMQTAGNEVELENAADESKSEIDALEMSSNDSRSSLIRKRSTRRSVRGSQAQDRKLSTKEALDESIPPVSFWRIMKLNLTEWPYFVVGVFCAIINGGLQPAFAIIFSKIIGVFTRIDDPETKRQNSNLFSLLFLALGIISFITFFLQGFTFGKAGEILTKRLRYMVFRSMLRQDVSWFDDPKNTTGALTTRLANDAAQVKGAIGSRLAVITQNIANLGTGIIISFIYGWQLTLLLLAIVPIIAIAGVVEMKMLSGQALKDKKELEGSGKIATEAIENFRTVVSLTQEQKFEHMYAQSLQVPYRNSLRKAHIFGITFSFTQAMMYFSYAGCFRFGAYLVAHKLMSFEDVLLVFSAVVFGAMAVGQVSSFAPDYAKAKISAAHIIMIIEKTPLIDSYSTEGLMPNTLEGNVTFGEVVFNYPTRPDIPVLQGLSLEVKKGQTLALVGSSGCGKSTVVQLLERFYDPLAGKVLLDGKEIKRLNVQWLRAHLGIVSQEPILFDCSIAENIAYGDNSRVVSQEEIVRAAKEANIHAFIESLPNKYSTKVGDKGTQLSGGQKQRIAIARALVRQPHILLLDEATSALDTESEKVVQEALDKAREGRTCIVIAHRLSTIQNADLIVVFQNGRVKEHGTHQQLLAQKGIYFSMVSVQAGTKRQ
The description is as above. Format: in vitro ADME. Particulars: P-gp substrate classification, MDCKII-MDR1 cells. The protocol:
as §1, §2, §3, §4, §5, §6

The target of the next data set is T3, human DAT (Homo sapiens, UniProt Q01959).
T3 construct: expressed in transfected cells; host or cells: CHO
T3 sequence (Q01959 whole entry): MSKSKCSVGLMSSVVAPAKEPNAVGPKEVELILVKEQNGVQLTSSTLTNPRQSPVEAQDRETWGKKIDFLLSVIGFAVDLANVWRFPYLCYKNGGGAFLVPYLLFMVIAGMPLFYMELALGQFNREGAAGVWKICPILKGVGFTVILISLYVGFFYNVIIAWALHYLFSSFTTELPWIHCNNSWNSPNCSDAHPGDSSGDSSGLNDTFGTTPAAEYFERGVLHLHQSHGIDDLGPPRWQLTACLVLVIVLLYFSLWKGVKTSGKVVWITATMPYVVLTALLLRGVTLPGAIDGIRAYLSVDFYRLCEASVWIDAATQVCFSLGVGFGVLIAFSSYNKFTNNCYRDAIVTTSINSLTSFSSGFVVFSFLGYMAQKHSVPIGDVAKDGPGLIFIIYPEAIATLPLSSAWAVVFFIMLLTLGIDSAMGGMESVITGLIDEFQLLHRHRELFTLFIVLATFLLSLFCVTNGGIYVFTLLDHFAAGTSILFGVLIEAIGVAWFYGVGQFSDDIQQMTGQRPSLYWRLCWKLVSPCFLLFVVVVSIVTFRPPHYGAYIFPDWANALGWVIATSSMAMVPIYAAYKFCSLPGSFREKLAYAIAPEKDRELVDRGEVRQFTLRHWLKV
As to the kind of experiment: DAT uptake scintillation proximity assay, inhibition of [3H]-dopamine uptake in hDAT-CHO cells. The format is cell-based. To be noted: read-out: DAT update pIC50 (converted). As for the experimental part: Overview: Eighty-eight compounds were tested in SERT (serotonin transporter) and DAT (dopamine transporter) uptake assays (completed as scintillation proximity assays, or SPAs, in a recombinant CHO cell line). Fifty-two compounds were tested in release assays for 5-HT and DA release in rat synaptosomes.
Methods and Procedure-Uptake: The potency of the compounds described herein for inhibiting DAT function was measured using an uptake assay in a recombinant CHO cell line stably expressing human DAT (hDAT-CHO). Potency was measured in terms of pIC50 by testing for inhibition of [^3H]-dopamine uptake in hDAT-CHO cells in a 384-well format scintillation proximity assay (SPA).
Briefly, on experiment days, hDAT-CHO cells were detached using Versene and added at a density of approximately 300,000 cells/mL to the SPA Mixture, which contains the following components in Assay Buffer (20 mM HEPES, 145 mM NaCl, 5 mM KCl, 2 mM CaCl2, 1 mM MgCl2, 5.5 mM glucose, 0.01% Pluronic F127, pH 7.3): 0.75 mg/mL SPA Imaging beads (RPNQ0001, PerkinElmer), 10 μM pargyline and 80 nM of [^3H]-dopamine (NET673, PerkinEImer). The SPA Mixture was added 20 μL/well to 384 well plates containing 0.1 μL/well of test compound in neat DMSO (11 points of 1:5 serial dilution, 0.5% DMSO final) or 0.1 μL of DMSO (total uptake) or 0.1 μL of the standard inhibitor indatraline (at 1 μM final concentration, as nonspecific uptake). Plates were sealed with a Top-seal A and read using a Microbeta counter (PerkinEImer) after 45 minutes of incubation at room temperature.
For both tests, the raw experimental data (cpm) were elaborated for the determination of pIC50/IC50 values as % inhibition of specific uptake. Concentration-response curves of MDMA, MDDMA, citalopram and GBR-12909 were used as internal standards in all experiments, and the signal window was monitored in each plate performing Z′ calculations, as described in Zhang et al., J. Biomol. Screen., 1999; 4: 67-73.

T1 sequence (P08183 whole entry): as the sequence (P08183 whole entry) above

For the compound `Clc1ccc([C@@]23CN[C@@H](CO2)C3)cc1Cl` (single isomer, unassigned) [518A], the efflux ratio at 60 min in data set [1] stood at 0.7. The “Substrate Classification” value in data set [2] is recorded as “not determined to be a substrate for P-gp; also recorded: pGP-NO”. In addition, the IC50 on human DAT was 89.1 nM.
Take `Clc1ccc(C23CNC(CO2)C3)cc1Cl` (centres unmarked) [522A, 1-(3,4-dichlorophenyl)-2-oxa-5-azabicyclo[2.2.1]heptane]: in data set [1], the efflux ratio at 60 min is 0.83. In addition, in data set [2], the “Substrate Classification” value is listed as “not determined to be a substrate for P-gp; also recorded: pGP-NO”. Further, the IC50 on human DAT was 63.1 nM.
Taken in the same sequence, the figures for `Clc1ccc([C@]23CN[C@H](CO2)C3)cc1Cl` (single isomer, unassigned) [516A] were 0.73, “pGP-NO” and 72.4 nM.
In the case of `CNC(C)Cc1ccc2c(c1)OCO2` (centres unmarked) [MDMA, reference compound], the efflux ratio at 60 min in data set [1] stood at 1.5. Further, the “Substrate Classification” value in data set [2] is “not a P-gp substrate”.
